Columns and labels:
B-Raf (V600E) = B-Raf (V600E) (Homo sapiens (Human), UniProt P15056, V600E); assay: Raf IC50 assay, time-resolved fluorescence energy transfer (TR-FRET), B-Raf; type: biochemical; details: 0.0625 nM B-Raf, 0.1 mM ATP, GST-tagged MEK1 substrate, 60 min preincubation; read-out: B-Raf (V600E) IC50
Procedure: The enzyme was incubated with the compounds at room temperature for 60 minutes and the reactions were initiated by the addition of ATP and GST-MEK1. […] Plates were sealed and incubated at room temperature for 2 hours, and then the TR-FRET signals were read on BMG PHERAstar FS instrument. The IC50 for each compound was calculated by non linear regression by Graphpad Prism software.

C-Raf (Y340D/Y341D) = C-Raf (Y340D/Y341D) (Homo sapiens (Human), UniProt P04049, Y340D/Y341D); assay: Raf IC50 assay, time-resolved fluorescence energy transfer (TR-FRET), C-Raf; type: biochemical; details: 0.5 nM C-Raf, 0.1 mM ATP, GST-tagged MEK1 substrate, 60 min preincubation
Procedure: The assay was carried out in reactions (10 μL) containing 0.0625 nM B-Raf or 0.5 nM C-Raf, 25 mM Tris pH7.4, 10 mM MgCl2, 0.5 mM EGTA, 0.5 mM […], 5 mM beta-glycerophosphate, 0.01% Triton X-100, 2.5 mM DTT, 0.1% BSA, 0.1 mM ATP, 13.7 nM GST-tagged MEK1 (Full-length protein with K97R mutation, recombinant protein purified from bacterial expression system) and 0-5 μM compounds disclosed herein (final concentration of 1% DMSO). The enzyme was incubated with the compounds at room temperature for 60 minutes and the reactions were initiated by the addition of ATP and GST-MEK1. After incubating at room temperature for 60 minutes, an equal volume of stop buffer containing 25 mM Tris pH7.4, 400 mM KF, 50 mM EDTA, 0.01% BSA, 0.01% Triton X-100, 1 test of Eu3+ Cryptate-conjugated rabbit polyclonal antibody anti-Phospho MEK1/2 (Ser217/221) and 1 test of d2-conjugated mouse monoclonal antibody anti-glutathione S-transferase was added to stop the reactions. Plates were sealed and incubated at room temperature for 2 hours, and then the TR-FRET signals were read on BMG PHERAstar FS instrument. The IC50 for each compound was calculated by non linear regression by Graphpad Prism software.

Chain of B-Raf (V600E) (P15056 whole entry V600E): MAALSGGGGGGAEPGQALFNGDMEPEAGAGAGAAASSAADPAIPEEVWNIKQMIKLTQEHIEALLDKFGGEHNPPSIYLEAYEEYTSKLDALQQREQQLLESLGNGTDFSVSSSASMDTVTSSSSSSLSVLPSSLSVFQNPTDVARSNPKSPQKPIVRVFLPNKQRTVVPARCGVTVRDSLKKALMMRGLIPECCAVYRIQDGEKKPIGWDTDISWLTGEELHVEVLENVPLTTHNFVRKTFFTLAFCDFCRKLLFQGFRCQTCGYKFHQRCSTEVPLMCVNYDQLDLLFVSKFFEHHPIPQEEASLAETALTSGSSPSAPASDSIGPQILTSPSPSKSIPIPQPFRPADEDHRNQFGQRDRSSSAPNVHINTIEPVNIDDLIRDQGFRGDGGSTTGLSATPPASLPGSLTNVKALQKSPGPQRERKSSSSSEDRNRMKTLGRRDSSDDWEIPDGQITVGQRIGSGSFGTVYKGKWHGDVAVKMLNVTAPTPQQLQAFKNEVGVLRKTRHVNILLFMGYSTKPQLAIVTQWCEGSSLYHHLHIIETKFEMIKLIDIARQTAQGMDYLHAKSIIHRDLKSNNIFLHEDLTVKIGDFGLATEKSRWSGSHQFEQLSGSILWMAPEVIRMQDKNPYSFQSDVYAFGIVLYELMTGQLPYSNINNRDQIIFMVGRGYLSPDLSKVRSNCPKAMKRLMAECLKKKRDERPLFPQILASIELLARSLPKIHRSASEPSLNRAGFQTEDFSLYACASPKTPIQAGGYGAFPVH
Chain of C-Raf (Y340D/Y341D) (P04049 whole entry Y340D/Y341D): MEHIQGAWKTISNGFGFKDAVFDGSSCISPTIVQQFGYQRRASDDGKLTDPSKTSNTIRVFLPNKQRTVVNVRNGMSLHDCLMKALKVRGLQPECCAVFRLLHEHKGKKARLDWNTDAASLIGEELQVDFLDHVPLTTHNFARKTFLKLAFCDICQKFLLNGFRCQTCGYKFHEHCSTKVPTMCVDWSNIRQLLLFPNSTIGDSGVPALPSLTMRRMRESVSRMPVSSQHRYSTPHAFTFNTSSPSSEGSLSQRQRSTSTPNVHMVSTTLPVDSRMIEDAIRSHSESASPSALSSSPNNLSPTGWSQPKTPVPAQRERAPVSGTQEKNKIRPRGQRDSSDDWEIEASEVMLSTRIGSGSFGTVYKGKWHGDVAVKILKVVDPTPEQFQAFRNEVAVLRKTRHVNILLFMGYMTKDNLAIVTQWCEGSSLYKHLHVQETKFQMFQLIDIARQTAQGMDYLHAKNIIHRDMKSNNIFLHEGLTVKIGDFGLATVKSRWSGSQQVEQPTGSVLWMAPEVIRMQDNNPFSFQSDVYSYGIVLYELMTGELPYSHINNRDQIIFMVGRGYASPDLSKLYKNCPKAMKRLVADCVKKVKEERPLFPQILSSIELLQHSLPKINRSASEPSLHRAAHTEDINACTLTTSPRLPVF

| Compound | IC50 (B-Raf (V600E)) [nM] | IC50 (C-Raf (Y340D/Y341D)) [nM] |
| --- | --- | --- |
| Cn1c(C2C3Oc4ccc(Oc5ccnc6c5CCC(=O)N6)cc4C32)nc2ccccc21 (stereo not drawn) [Compound 2.15] | 12 | 3.6 |
| COc1ccc2nc(C3C4Oc5ccc(Oc6ccnc7c6CCC(=O)N7)cc5C43)[nH]c2c1 (stereo not drawn) [Compound 2.16] | 15 | 3.8 |
| O=C1CCc2c(Oc3ccc4c(c3)C3C(O4)C3c3nc4cc(Cl)c(F)cc4[nH]3)ccnc2N1 (stereo not drawn) [Compound 2.17] | 5.4 | 5.9 |
| O=C1CCc2c(Oc3ccc4c(c3)C3C(O4)C3c3nc4cccc(C(F)(F)F)c4[nH]3)ccnc2N1 (stereo not drawn) [Compound 2.18] | 89 | 6.2 |
| O=C1CCc2c(Oc3ccc4c(c3)C3C(O4)C3c3nc4cccc(F)c4[nH]3)ccnc2N1 (stereo not drawn) [Compound 2.19] | 11 | 1.6 |
| CC(C)(C)c1ccc2nc(C3C4Oc5ccc(Oc6ccnc7c6CCC(=O)N7)cc5C43)[nH]c2c1 (stereo not drawn) [Compound 2.20] | 33 | 4.4 |
| NC(=O)c1ccc2nc(C3C4Oc5ccc(Oc6ccnc7c6CCC(=O)N7)cc5C43)[nH]c2c1 (stereo not drawn) [Compound 2.22] | 4 | 1 |
| Cn1c(C2C3Oc4ccc(Oc5ccnc6c5CCC(=O)N6)cc4C32)nc2ccc(C(F)(F)F)cc21 (stereo not drawn) [Compound 2.23] | 204 | 35 |
| Cn1c(C2C3Oc4ccc(Oc5ccnc6c5CCC(=O)N6)cc4C32)nc2cc(C(F)(F)F)ccc21 (stereo not drawn) [Compound 2.24] | 47 | 4.3 |
| O=C1CCc2c(Oc3cccc4c3OC3C(c5nc6ccc(C(F)(F)F)cc6[nH]5)C43)ccnc2N1 (stereo not drawn) [Compound 2.25] | 849 | 36 |
| O=C1CCc2c(Oc3ccc4c(c3)C3C(O4)C3c3nc(-c4ccncc4)c[nH]3)ccnc2N1 (stereo not drawn) [Compound 2.31] | 3.7 | 0.35 |
| O=C1CCc2c(Oc3ccc4c(c3)C3C(O4)C3c3nc(-c4ccccc4Cl)c[nH]3)ccnc2N1 (stereo not drawn) [Compound 2.32] | 3.3 | 0.9 |

— US9273046B2, “Fused tricyclic compounds as Raf kinase inhibitors” (BeiGene, LTD., priority 2011, dated 2016)
